Data published in patent US6822100B2 (Bristol-Myers Squibb Company, priority 2001, dated 2004).
Like-named read-outs stand apart in the source and are kept apart here.

Columns and labels:
[1] = molecular target: T1, human serotonin transporters (Homo sapiens, UniProt P31645); experiment: Serotonin Transporter Binding Assay; details: HEK-hSERT cell membranes, 1 nM [3H]-citalopram, Cheng and Prusoff
T1 construct: expressed in transfected cells; host or cells: HEK-293 (HEK-hSERT), membrane homogenates
Method: HEK-293 cells that stably express human serotonin transporters (HEK-hSERT cells) were grown at 37° C. in 5% CO2 as a monolayer in medium consisting of EMEM supplemented with 10% fetal bovine serum and G418 sulfate (500 μg/ml). To prepare membranes for radioligand binding experiments, cells were rinsed twice with phosphate-buffered saline (138 mM NaCl, 4.1 mM KCl, 5.1 mM Na2PO4, 1.5 mM […], 11.1 mM glucose, pH 7.4). Cells were transferred from plates to polypropylene tubes (16×100 mm), centrifuged at 1,200×g for 5 min and were frozen at −80° C. until assay. Following centrifugation, pellets were resuspended by homogenization in buffer consisting of 50 mM Tris (pH 7.7 at 25° C.), 120 mM NaCl and 5 mM KCl and then centrifuged at 32,000×g for 10 min. Following centrifugation, supernatants were discarded and pellets were resuspended in buffer consisting of 50 mM Tris (pH 7.4 at 25° C.), 150 mM NaCl and 5 mM KCl. Membrane homogenates (200 μl/plate) were incubated with 1 nM [^3H]-citalopram (specific activity=85 Ci/mmol) and increasing concentrations of test compounds for 1 hr at 25° C. in a total volume of 250 μl. The assay buffer consisted of 50 mM Tris (pH 7.4 at 25° C.), 120 mM NaCl and 5 mM KCl (pH 7.4 with conc. HCl). Plates were incubated for 1 hr at 25° C., then filtered through 0.5% PEI treated Whatman GF/B filters using a Brandel cell harvester. Filters were washed three times with 3 ml of ice-cold tris wash buffer. Non-specific binding was defined with 10 μM fluoxetine. Amount of radioligand bound in the presence and absence of competitor was analyzed by plotting (−)log drug concentration versus the amount of radioligand specifically bound. The midpoint of the displacement curve (IC50, nM), signifies the potency. Ki values were calculated using the method of Cheng and Prusoff (1973).

[2] = molecular target: T2, recombinant human dopamine D2L receptors (Homo sapiens, UniProt P14416); experiment: Dopamine Binding Assay; details: HEK-D2L cell membranes, 150 pM [3H]-spiperone, Cheng and Prusoff
T2 construct: expressed in transfected cells; host or cells: HEK-293 (HEK-D2L), membrane homogenates
Method: HEK-293 cells that stably express recombinant human dopamine D2L receptors (HEK-D2L cells) were grown at 37° C. in 5% CO2 as a monolayer in medium consisting of EMEM supplemented with 10% fetal bovine serum and G418 sulfate (500 μg/ml). To prepare membranes for radioligand binding experiments, cells were rinsed twice with phosphate-buffered saline (138 mM NaCl, 4.1 mM KCl, 5.1 mM Na2PO4, 1.5 mM KH2PO2 11.1 mM glucose, pH 7.4), and incubated for 5-10 min. at 4° C. in hypotonic lysis buffer consisting of 10 mM Tris (pH 7.4) and 5 mM EDTA. Cells were transferred from plates to polypropylene tubes (16×100 mm), homogenized and centrifuged at 32,000×g for 20 min. Following centrifugation, pellets were resuspended by homogenization in buffer consisting of 50 mM Tris (pH 7.7 at 25° C.) and 1 mM EDTA. Homogenates were stored at −80° C. until needed. On the day of an experiment, homogenates were thawed then centrifuged at 32,000×g for 20 min. Following centrifugation, supernatants were discarded and pellets were resuspended in assay buffer consisting of 50 mM Tris (pH 7.4 at 25° C.), 1 mM EDTA and 6 mM MgCl2. Membrane homogenates (˜5 μg) were incubated with 150 pM [^3H]-spiperone (Amersham Life Science) and increasing concentrations of test compounds for 1.5 hr at 22° C. in a total volume of 400 μl. Reactions were stopped by addition of ice-cold assay buffer and filtration over glass fiber filters (Whatman GFB, pre-soaked in 0.05% polyethylenimine) using a microtitre format Brandel cell harvester. Filters were washed with 3 ml of ice-cold assay buffer. Non-specific binding was defined with 2 μM (+)butaclamol. Ki values were calculated using the method of Cheng and Prusoff (1973). Protein concentrations were determined by the method of Bradford (1976) with BSA as a standard.

T1 sequence (P31645 whole entry): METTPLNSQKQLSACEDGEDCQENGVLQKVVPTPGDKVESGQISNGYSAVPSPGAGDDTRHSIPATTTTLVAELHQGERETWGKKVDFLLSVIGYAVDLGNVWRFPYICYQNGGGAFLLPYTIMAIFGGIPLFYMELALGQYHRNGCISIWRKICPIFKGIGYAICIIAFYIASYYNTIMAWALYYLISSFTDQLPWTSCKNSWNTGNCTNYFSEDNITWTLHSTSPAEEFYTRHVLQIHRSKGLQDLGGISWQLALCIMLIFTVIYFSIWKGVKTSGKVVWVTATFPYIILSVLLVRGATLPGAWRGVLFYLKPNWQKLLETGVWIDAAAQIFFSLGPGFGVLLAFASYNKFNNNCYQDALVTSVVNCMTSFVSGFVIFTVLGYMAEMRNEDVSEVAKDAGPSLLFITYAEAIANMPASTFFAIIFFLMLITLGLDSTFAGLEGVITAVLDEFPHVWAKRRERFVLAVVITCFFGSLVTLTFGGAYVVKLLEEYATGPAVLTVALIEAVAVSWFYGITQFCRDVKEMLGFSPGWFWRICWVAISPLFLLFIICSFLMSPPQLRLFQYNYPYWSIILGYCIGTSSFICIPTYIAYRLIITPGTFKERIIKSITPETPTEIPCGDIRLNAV
T2 sequence (P14416 whole entry): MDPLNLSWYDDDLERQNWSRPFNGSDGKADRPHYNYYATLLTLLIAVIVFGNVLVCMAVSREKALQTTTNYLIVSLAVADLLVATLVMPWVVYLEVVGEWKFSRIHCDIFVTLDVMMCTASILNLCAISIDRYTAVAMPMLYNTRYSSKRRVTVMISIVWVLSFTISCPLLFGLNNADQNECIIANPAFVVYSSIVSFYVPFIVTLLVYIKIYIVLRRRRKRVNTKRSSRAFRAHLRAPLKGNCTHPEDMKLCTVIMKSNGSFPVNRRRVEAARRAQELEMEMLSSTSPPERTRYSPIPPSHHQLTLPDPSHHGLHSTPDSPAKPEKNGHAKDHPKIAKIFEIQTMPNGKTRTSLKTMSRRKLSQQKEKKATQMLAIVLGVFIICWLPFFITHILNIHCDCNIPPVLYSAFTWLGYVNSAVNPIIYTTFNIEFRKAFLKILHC

| Structure (SMILES) | Ki ([1]; read-out: SERT Ki) [nM] | Ki [2] [nM] | Ki ([1]; SERT Ki (nM)) [nM] |
| --- | --- | --- | --- |
| N#Cc1ccc2[nH]cc([C@@H]3C[C@H]3CNCCc3c[nH]c4ccccc34)c2c1 (relative stereo) [Example 27, trans-2-[5-Cyanoindol-3-yl]-1-[N-2-(3-indolyl)ethylaminomethyl]-cyclopropane] | 1 to 10 | 10 to 100 | – |
| CN(C)CC1CC1c1c[nH]c2ccccc12 (centres unmarked) [Example 143] | – | > 1000 | 10 to 100 |
| CC(C1CC1c1c[nH]c2ccc(C#N)cc12)N(C)C (racemic) [Example 121, trans-3-[2-(1-Dimethylamino-ethyl)-cyclopropyl]-1H-indole-5-carbonitrile] | – | > 1000 | < 1 |
| N#Cc1ccc2[nH]cc(C3CC3CNCC3CC3)c2c1 (stereo not drawn) [Example 28, trans-2-[5-Cyanoindol-3-yl]-1-[N-cyclopropylmethylaminomethyl]-cyclopropane] | – | > 1000 | 10 to 100 |
| CCN(CCCNC(=O)OC)C[C@@H]1C[C@H]1c1c[nH]c2ccc(F)cc12 (relative stereo) [Example 112, trans-1-[N,N-Ethyl-2-amino(methylcarbamoyl)propylaminomethyl]-2-[5-fluoroindol-3-yl]-cyclopropane] | 10 to 100 | 100 to 1000 | – |
| CCN(CC)CC1CC1c1c[nH]c2ccc(F)cc12 (centres unmarked) [Example 183] | – | > 1000 | 10 to 100 |
| CCCOC(=O)NCCCN(CC)C[C@@H]1C[C@H]1c1c[nH]c2ccc(F)cc12 (relative stereo) [Example 114, trans-1-[N,N-Ethyl-2-amino(propylcarbamoyl)propylaminomethyl]-2-[5-fluoroindol-3-yl]-cyclopropane] | 10 to 100 | 100 to 1000 | – |
| CCOC(=O)NCCCN(C)C[C@@H]1C[C@H]1c1c[nH]c2ccc(F)cc12 (relative stereo) [Example 105, trans-2-[5-Fluoroindol-3-yl]-1-[N,N-methyl-2-amino(ethylcarbamoyl)propylaminomethyl]-cyclopropane] | 10 to 100 | 100 to 1000 | – |
| CCN(CC)C[C@H]1C[C@@H]1c1c[nH]c2cc(C#N)ccc12 (racemic) [Example 160, 3-(2-Diethylaminomethyl-cyclopropyl)-1H-indole-6-carbonitrile] | – | > 1000 | 10 to 100 |

The next lines start with results.

| Ki ([1]; read-out: SERT Ki) [nM] | Ki [2] [nM] | Structure (SMILES) | Ki ([1]; SERT Ki (nM)) [nM] |
| --- | --- | --- | --- |
| 1 to 10 | 10 to 100 | COc1ccccc1CCNC[C@@H]1C[C@H]1c1c[nH]c2ccc(C#N)cc12 (relative stereo) [Example 41] | – |
| 1 to 10 | 1 to 10 | N#Cc1ccc2[nH]cc(C3CC3CN3CCC(Cc4ccccc4)CC3)c2c1 (stereo not drawn) [Example 34, trans-1-(4-Benzyl-piperidin-1-ylmethyl)-2-[5-cyanoindol-3-yl]-cyclopropane] | – |
| 10 to 100 | 10 to 100 | Fc1ccc2[nH]cc(C3CC3CNCCc3ccccc3F)c2c1 (stereo not drawn) [Example 59, trans-2-[5-Fluoroindol-3-yl]-1-[N-(2-fluorophenyl)ethylaminomethyl]-cyclopropane] | – |
| 1 to 10 | 100 to 1000 | CCCOC(=O)NCCN(CC)C[C@@H]1C[C@H]1c1c[nH]c2ccc(F)cc12 (relative stereo) [Example 110, trans-1-[N,N-Ethyl-2-amino(propylcarbamoyl)ethylaminomethyl]-2-[5-fluoroindol-3-yl]-cyclopropane] | – |
| 10 to 100 | 10 to 100 | Fc1ccc2[nH]cc(C3CC3CN3CCN(Cc4ccccc4)CC3)c2c1 (stereo not drawn) [Example 75, trans-1-[4-Benzyl-piperazin-1-yl-methyl]-2-[5-fluoroindol-3-yl]-cyclopropane] | – |
| 1 to 10 | 10 to 100 | Fc1ccc2[nH]cc(C3CC3CNCCCc3ccccc3)c2c1 (stereo not drawn) [Example 62, trans-2-[5-Fluoroindol-3-yl]-1-[N-3-phenylpropylaminomethyl]-cyclopropane] | – |
| 10 to 100 | 100 to 1000 | Fc1ccc2[nH]cc(C3CC3CNCc3ccccc3F)c2c1 (stereo not drawn) [Example 53, trans-1-[N-(2-Fluorobenzyl)aminomethyl]2-[5-fluoroindol-3-yl]-cyclopropane] | – |
